Columns and labels:
Assay type in all cases: ADME
[1] = Kinetic parameter Vmax was determined
[2] = Kinetic parameter Km was determined
[3] = Efficiency expressed as ratio of Vmax to that of Km was determined

Vmax [1] [pmol/U/min] | Km [2] [µM] | Ratio [3] | Structure (SMILES)
13.1 | 62 | 0.211 | Nc1nc2c(ncn2[C@H]2C[C@H](O)[C@@H](COP(=O)(O)OP(=O)(O)OP(=O)(O)O)O2)c(=O)[nH]1 [DEOXYGUANOSINE TRIPHOSPHATE]
18.7 | 25.6 | 0.73 | Nc1ccn([C@H]2C[C@H](O)[C@@H](COP(=O)(O)OP(=O)(O)OP(=O)(O)O)O2)c(=O)n1 [DEOXYCYTIDINE TRIPHOSPHATE]
0.994 | 22 | 0.0452 | Nc1ncnc2c1ncn2[C@H]1C[C@H](O)[C@@H](COP(=O)(O)OP(=O)(O)OP(=O)(O)O)O1
